Measured values: paper PMC7381729, “A new class of PentixaFor- and PentixaTher-based theranostic agents with enhanced CXCR4-targeting efficiency” (Theranostics, 2020)
Read-outs that look alike come from different tables or passages of the source. Values belong to the molecule of their own block, whether it stands above or below them. Where a SMILES comes first, the peptide text is derived from it. Side-chain parts run from the residue outwards. [ ]: non-standard residue; d: D form. The star is where a group is joined. DOTA = O=C(O)CN1CCN(CC(=O)O)CCN(CC(=O)*)CCN(CC(=O)O)CC1; dTyr(3-I) = N[C@H](Cc1ccc(O)c(I)c1)C(=O)O; 2Nal = N[C@@H](Cc1ccc2ccccc2c1)C(=O)O; dNMeOrn = CN[C@H](CCCN)C(=O)O; 4Amb = NCc1ccc(C(=O)O)cc1; 4Abz = Nc1ccc(C(=O)O)cc1

Key:
[1] = Lipophilicity, modified shake-flask method; format: physicochemical; settings: O/PBS, radiolabeled compound, means ± SD (n=6)
Description: The lipophilicity (log PO/PBS) of the ^68Ga- and ^177Lu-labeled compounds in this study was determined via a modified shake-flask method.

[2] = test system: Daudi (human B-cell lymphoma) xenograft bearing CB-17 SCID mice; assay: Biodistribution in Daudi xenograft bearing mice; format: in vivo, mouse; settings: for Initial activity retained in the Daudi xenografts after 48h: 48h p.i. relative to early time point
Description: (§1) The biodistribution of selected compounds was investigated in Daudi (human B-cell lymphoma) xenograft bearing female CB-17 SCID mice (6-8 weeks, Charles River, Sulzfeld, Germany), [29]. All animal experiments were performed in accordance with current animal welfare regulations in Germany (approval #55.2-1-54-2532-71-13).
(§2) Animals (n=4-5 per group) were injected intravenously with 5-10 MBq (0.08-0.11 nmol peptide per mouse) of the respective ^68Ga- and^ 177Lu-labeled CXCR4 ligands in PBS (100 µL) into the tail vein under isoflurane anesthesia. CXCR4-specificity of binding was determined by coinjection of 50 µg AMD3100 per mouse. The animals were sacrificed 1, 6 and 48h post injection (p.i.), and the organs of interest were dissected. The radioactivity was measured in weighted tissue samples using a γ-counter. Data are expressed in % ID/g tissue (mean ± SD).

[3] = In vivo metabolite analysis (radio-HPLC); set-up: species or system mouse; settings: CB17 SCID mice, 0.5h p.i., i.v. app. 35 MBq; radio-HPLC of extracts
Description: 68Ga-labeling was performed as published previously using a 68Ge/68Ga generator (iTHEMBA Labs, South Africa) and a GallElut + synthesis module (SCINTOMICS GmbH, Germany). Usually, 5 nmol of precursor peptide were used, yielding the 68Ga-labeled peptides in specific activities of 100 to 120 […]
For 177Lu-labeling, the peptides were dissolved in water to yield a 1 mM solution. Of this solution, the required volume was added to 177LuCl3 in 0.04 M HCl (ITG/ITM, Garching, Germany; activity concentration: 370 MBq/500 µl) to achieve a peptide-to -177Lu-activity ratio of 1 nmol peptide per 225 MBq 177LuCl3. To this mixture, 1 M NH4OAc was added (calculated to be 10% of total reaction volume), and the mixture was heated to 90°C for 4 0 min. […]
Human glioma U87 cells overexpressing CD4 and CXCR4 (U87CD4CXCR4) cells were kept in cultivation at least one week before starting the experiment. […] Perkin-Elmer’s LANCE cAMP assay kit (catalog #AD0262) based on time-resolved fluorescence resonance energy transfer (TR -FRET) was utilized to determine the ability of [natLu]DOTA -r -a -ABA -iodo CPCR4 and [ natLu]PentixaTher vs the reference CXCL12 to inhibit cAMP production induced by 5 µM Forskolin. […]
(15,000 g), and the supernatants were subjected to ultrafiltration. […] The blood extract was also analyzed by radio-HPLC. For all extracts the ex traction efficiency was determined in a ɣ -counter.

[4] = Biodistribution in Daudi xenograft bearing mice; format: in vivo, mouse; settings: female, CB-17 SCID, mouse, iv, total radioactivity, 48h p.i., means ± SD, n=4-5 animals
Description: as §1, §2

[5] = 1h p.i., tracer only, i.v., γ-counter, means ± SD, n=4-5 (68Ga: n=4)
[6] = 6h p.i., i.v., means ± SD, n=4-5
[7] = 48h p.i., i.v., means ± SD, n=4-5

log PO/PBS [1]: -3.3 ± 0.02
Biodistribution adrenals [2, 5]: 1.51 ± 0.18 %iD/g
Biodistribution liver [2, 5]: 5.66 ± 0.40 %iD/g
Biodistribution lung [2, 5]: 2.91 ± 0.28 %iD/g
Biodistribution spleen [2, 5]: 3.02 ± 0.46 %iD/g
Biodistribution stomach [2, 5]: 0.93 ± 0.15 %iD/g
Biodistribution tumor (Daudi xenograft) [2, 5]: 8.32 ± 1.30 %iD/g
Structure (SMILES): C[C@@H](NC(=O)[C@@H](CCCNC(=N)N)NC(=O)CN1CCN(CC(=O)O)CCN(CC(=O)O)CCN(CC(=O)O)CC1)C(=O)Nc1ccc(C(=O)NCCC[C@@H]2C(=O)N[C@@H](CCCNC(=N)N)C(=O)N[C@@H](Cc3ccc4ccccc4c3)C(=O)NCC(=O)N[C@H](Cc3ccc(O)c(I)c3)C(=O)N2C)cc1 [[^68Ga]DOTA-r-a-ABA-iodoCPCR4] [metal not drawn] (cyclo([2Nal]G[dTyr(3-I)][dNMeOrn]([4Abz-dA-dR-DOTA])R))

log PO/PBS [1]: -3.0 ± 0.13
Biodistribution adrenals [2, 5]: 1.16 ± 0.18 %iD/g
Biodistribution blood [2, 5]: 1.50 ± 0.10 %iD/g
Biodistribution colon [2, 5]: 0.78 ± 0.28 %iD/g
Biodistribution femur [2, 5]: 0.86 ± 0.04 %iD/g
Biodistribution heart [2, 5]: 0.90 ± 0.07 %iD/g
Biodistribution kidney [2, 5]: 9.74 ± 0.91 %iD/g
Biodistribution liver [2, 5]: 11.9 ± 1.57 %iD/g
Biodistribution lung [2, 5]: 3.53 ± 1.20 %iD/g
Biodistribution muscle [2, 5]: 0.28 ± 0.02 %iD/g
Biodistribution small intestine [2, 5]: 1.23 ± 0.18 %iD/g
Biodistribution spleen [2, 5]: 2.41 ± 0.34 %iD/g
Biodistribution stomach [2, 5]: 1.72 ± 0.16 %iD/g
Biodistribution tumor (Daudi xenograft) [2, 5]: 18.3±3.7 %iD/g
Initial activity retained in the Daudi xenografts after 48h [2]: ~50%
Stable (intact tracer) in blood, urine and liver homogenates [3]: > 99%
Structure (SMILES): C[C@@H](NC(=O)[C@@H](CCCNC(=N)N)NC(=O)CN1CCN(CC(=O)O)CCN(CC(=O)O)CCN(CC(=O)O)CC1)C(=O)Nc1ccc(C(=O)NCCC[C@@H]2C(=O)N[C@@H](CCCNC(=N)N)C(=O)N[C@@H](Cc3ccc4ccccc4c3)C(=O)NCC(=O)N[C@H](Cc3ccc(O)cc3)C(=O)N2C)cc1 [[^177Lu]DOTA-r-a-ABA-CPCR4] [metal not drawn] (cyclo([2Nal]G[dY][dNMeOrn]([4Abz-dA-dR-DOTA])R))

logD ([1]; octanol/PBS): -1.8 ± 0.2
tissue to tissue ratio at 48 h ([4]; tumor / blood, read-out: Tumor/organ ratio t/blood): 201 ± 27
tissue to tissue ratio at 48 h ([4]; tumor / colon, read-out: Tumor/organ ratio t/colon): 13 ± 5
tissue to tissue ratio at 48 h ([4]; tumor / heart, read-out: Tumor/organ ratio t/heart): 31 ± 4
tissue to tissue ratio at 48 h ([4]; tumor / kidney, read-out: Tumor/organ ratio t/kidney): 2.7 ± 0.4
tissue to tissue ratio at 48 h ([4]; tumor / lung, read-out: Tumor/organ ratio t/lung): 16 ± 5
tissue to tissue ratio at 48 h ([4]; tumor / muscle, read-out: Tumor/organ ratio t/muscle): 85 ± 15
tissue to tissue ratio at 48 h ([4]; tumor / small intestine, read-out: Tumor/organ ratio t/small intestine): 29 ± 6
tissue to tissue ratio at 48 h ([4]; tumor / spleen, read-out: Tumor/organ ratio t/spleen): 2.1 ± 0.5
tissue to tissue ratio at 48 h ([4]; tumor / stomach, read-out: Tumor/organ ratio t/stomach): 27 ± 6
Biodistribution brain ([2]; 1h p.i., tracer only, i.v., γ-counter, means ± SD, n=4-5): 0.05 ± 0.01 %iD/g
Biodistribution adrenals [2, 5]: 1.5 ± 0.6 %iD/g
Biodistribution femur [2, 5]: 0.6 ± 0.2 %iD/g
Biodistribution heart [2, 5]: 0.9 ± 0.3 %iD/g
Biodistribution kidney [2, 5]: 3.4 ± 0.6 %iD/g
Biodistribution liver [2, 5]: 10.3 ± 0.8 %iD/g
Biodistribution lung [2, 5]: 2.5 ± 0.7 %iD/g
Biodistribution muscle [2, 5]: 0.3 ± 0.1 %iD/g
Biodistribution pancreas [2, 5]: 0.4 ± 0.1 %iD/g
Biodistribution small intestine [2, 5]: 0.9 ± 0.2 %iD/g
Biodistribution spleen [2, 5]: 1.8 ± 0.3 %iD/g
Biodistribution stomach [2, 5]: 1.2 ± 0.3 %iD/g
Biodistribution tumor (Daudi xenograft) [2, 5]: 12.4±3.7 %iD/g
Biodistribution adrenals [2, 6]: 0.64 ± 0.13 %iD/g
Biodistribution blood [2, 6]: 0.09 ± 0.01 %iD/g
Biodistribution brain [2, 6]: 0.02 ± 0.005 %iD/g
Biodistribution femur [2, 6]: 0.23 ± 0.02 %iD/g
Biodistribution heart [2, 6]: 0.18 ± 0.02 %iD/g
Biodistribution kidney [2, 6]: 2.52 ± 0.33 %iD/g
Biodistribution liver [2, 6]: 9.59 ± 0.69 %iD/g
Biodistribution lung [2, 6]: 0.42 ± 0.06 %iD/g
Biodistribution muscle [2, 6]: 0.06 ± 0.01 %iD/g
Biodistribution pancreas [2, 6]: 0.09 ± 0.01 %iD/g
Biodistribution small intestine [2, 6]: 0.22 ± 0.04 %iD/g
Biodistribution spleen [2, 6]: 1.35 ± 0.41 %iD/g
Biodistribution stomach [2, 6]: 0.21 ± 0.01 %iD/g
Biodistribution tumor (Daudi xenograft) [2, 6]: 6.79 ± 0.68 %iD/g
Initial activity retained in the Daudi xenografts after 48h [2]: 25%
Biodistribution adrenals [2, 7]: 0.56 ± 0.08 %iD/g
Biodistribution blood [2, 7]: 0.02 ± 0.001 %iD/g
Biodistribution brain [2, 7]: 0.007 ± 0.002 %iD/g
Biodistribution femur [2, 7]: 0.22 ± 0.05 %iD/g
Biodistribution heart [2, 7]: 0.11 ± 0.01 %iD/g
Biodistribution kidney [2, 7]: 1.20 ± 0.13 %iD/g
Biodistribution liver [2, 7]: 8.25 ± 2.23 %iD/g
Biodistribution lung [2, 7]: 0.21 ± 0.06 %iD/g
Biodistribution muscle [2, 7]: 0.04 ± 0.005 %iD/g
Biodistribution pancreas [2, 7]: 0.08 ± 0.01 %iD/g
Biodistribution small intestine [2, 7]: 0.11 ± 0.02 %iD/g
Biodistribution spleen [2, 7]: 1.58 ± 0.33 %iD/g
Biodistribution stomach [2, 7]: 0.12 ± 0.02 %iD/g
Biodistribution tumor (Daudi xenograft) [2, 7]: 3.27 ± 0.41 %iD/g
Structure (SMILES): CN1C(=O)[C@@H](Cc2ccc(O)c(I)c2)NC(=O)CNC(=O)[C@H](Cc2ccc3ccccc3c2)NC(=O)[C@H](CCCNC(=N)N)NC(=O)[C@H]1CCCNC(=O)c1ccc(CNC(=O)CN2CCN(CC(=O)O)CCN(CC(=O)O)CCN(CC(=O)O)CC2)cc1 [[^177Lu]PentixaTher, cyclo(D-3-iodo-Tyr^1-D-[NMe]Orn^2(AMBS-([^177Lu]DOTA)-Arg^3-Nal^4-Gly^5), metal not drawn, reference compound] (cyclo([dTyr(3-I)][dNMeOrn]([4Amb-DOTA])R[2Nal]G))
